Laboratory results as given in US10030006B2, “Coumarin based Hsp90 inhibitors with urea and ether substituents” (University of Kansas, priority 2013, dated 2018).
Like-named read-outs stand apart in the source and are kept apart here.

How the values were obtained:
Assay type in all cases: cell-based
[1] = tested on: MCF-7 (estrogen receptor positive breast cancer cells); test: Anti-proliferation assay (MTS/PMS, 72 h), MCF-7
Procedure: (§1) Cells were maintained in a 1:1 mixture of Advanced DMEM/F12 (Gibco) supplemented with non-essential amino acids, L-glutamine (2 mM), streptomycin (500 μg/mL), penicillin (100 units/mL), and 10% FBS. Cells were grown to confluence in a humidified atmosphere (37° C., 5% CO2), seeded (2000/well, 100 μL) in 96-well plates, and allowed to attach overnight. Compound at varying concentrations in DMSO (1% DMSO final concentration) was added, and cells were returned to the incubator for 72 h. At 72 h, the number of viable cells was determined using an MTS/PMS cell proliferation kit (Promega) per the manufacturer's instructions. Cells incubated in 1% DMSO were used at 100% proliferation, and values were adjusted accordingly. IC50 values were calculated from separate experiments performed in triplicate using GraphPad Prism.
(§2) The anti-proliferative activity of these compounds is evaluated against two breast cancer cell lines, SKBr3 (estrogen receptor negative, Her2 over-expressing breast cancer cells) and MCF-7 (estrogen receptor positive breast cancer cells).

[2] = tested on: SKBr3 (estrogen receptor negative, Her2 over-expressing breast cancer cells); test: Anti-proliferation assay (MTS/PMS, 72 h), SKBr3
Procedure: as §1, §2

[3] = tested on: MDA1986; test: Anti-proliferation assay, MDA1986; conditions: HSNCC
Procedure: as §1

[4] = tested on: JMAR; test: Anti-proliferation assay, JMAR; conditions: HSNCC
Procedure: as §1

[5] = tested on: DRO81-1; test: Anti-proliferation assay, DRO81-1; conditions: Thyroid
Procedure: as §1

[6] = tested on: PC-3; test: Anti-proliferation assay, PC-3; conditions: Prostate Cancer
Procedure: as §1

[7] = tested on: A-549; test: Anti-proliferation assay, A-549
Procedure: as §1

[8] = tested on: MDAMB231; test: Anti-proliferation assay, MDAMB231; conditions: Tri-Neg
Procedure: as §1

[9] = tested on: HCT-116; test: Anti-proliferation assay, HCT-116; conditions: Table 9, non-aryl ureas
Procedure: as §1

[10] = tested on: HMLE; test: Anti-proliferation assay, HMLE (normal)
Procedure: as §1

[11] = tested on: MRC5; test: Anti-proliferation assay, MRC5 (normal)
Procedure: as §1

[12] = Homo sapiens, MCF7, Table 4, alkylamino analogues, read-out: MCF-7
[13] = Homo sapiens, SK-BR-3, Table 4, alkylamino analogues, read-out: SKBr3
[14] = Homo sapiens, MCF7, Table 5, alkylether derivatives with cyclic N-substitutions, read-out: MCF-7
[15] = Homo sapiens, SK-BR-3, Table 5, alkylether derivatives with cyclic N-substitutions, read-out: SKBr3
[16] = Homo sapiens, MCF7, Table 8, biphenyl ureas, Breast Cancer, read-out: IC50 MCF-3
[17] = Homo sapiens, SK-BR-3, Table 8, biphenyl ureas, Breast Cancer, read-out: IC50 SKBr3
[18] = Table 3, cycloamine analogues, read-out: MCF-7
[19] = Table 3, cycloamine analogues, read-out: SKBr3
[20] = MDA1986, Table 6, substituted phenyl ureas
[21] = HMLE, Table 6, substituted phenyl ureas
[22] = JMAR, Table 6, substituted phenyl ureas
[23] = Homo sapiens, MCF7, Table 6, substituted phenyl ureas, Breast Cancer, read-out: IC50 MCF-3
[24] = Homo sapiens, MRC5, Table 6, substituted phenyl ureas
[25] = Table 6, substituted phenyl ureas
[26] = Homo sapiens, PC-3, Table 6, substituted phenyl ureas
[27] = Homo sapiens, A549, Table 6, substituted phenyl ureas
[28] = Homo sapiens, MDA-MB-231, Table 6, substituted phenyl ureas
[29] = Homo sapiens, SK-BR-3, Table 6, substituted phenyl ureas, Breast Cancer, read-out: IC50 SKBr3

Compound: CC(C)=CCc1cc(C(=O)Nc2cc3ccc(OCCCN(C(C)C)C(C)C)c(C)c3oc2=O)ccc1O [Compound 68i, N-(7-(3-(diisopropylamino)propoxy)-8-methyl-2-oxo-2H-chromen-3-yl)-4-hydroxy-3-(3-methylbut-2-en-1-yl)benzamide]
- IC50 [1, 12]: 1310 ± 390 nM
- IC50 [2, 13]: 1600 ± 20 nM

Compound: CC(C)=CCc1cc(C(=O)Nc2cc3ccc(OCCCNC(C)(C)C)c(C)c3oc2=O)ccc1O [Compound 68j, N-(7-(3-(tert-butylamino)propoxy)-8-methyl-2-oxo-2H-chromen-3-yl)-4-hydroxy-3-(3-methylbut-2-en-1-yl)benzamide]
- IC50 [1, 12]: 950 ± 100 nM
- IC50 [2, 13]: 660 ± 60 nM

Compound: CC(C)=CCc1cc(C(=O)Nc2cc3ccc(OCCCN(C)C(C)(C)C)c(C)c3oc2=O)ccc1O [Compound 68k, N-(7-(3-(tert-butyl(methyl)amino)propoxy)-8-methyl-2-oxo-2H-chromen-3-yl)-4-hydroxy-3-(3-methylbut-2-en-1-yl)benzamide]
- IC50 [1, 12]: 1140 ± 110 nM
- IC50 [2, 13]: 880 ± 100 nM

Compound: CC(C)=CCc1cc(C(=O)Nc2cc3ccc(OCCCNC4CCCCC4)c(C)c3oc2=O)ccc1O [Compound 70a, N-(7-(3-(cyclohexylamino)propoxy)-8-methyl-2-oxo-2H-chromen-3-yl)-4-hydroxy-3-(3-methylbut-2-en-1-yl)benzamide]
- IC50 [1, 14]: 1070 ± 350 nM
- IC50 [2, 15]: 660 ± 120 nM

Compound: CC(C)=CCc1cc(C(=O)Nc2cc3ccc(OCCCN(C)C4CCCCC4)c(C)c3oc2=O)ccc1O [Compound 70b]
- IC50 ([1]; Table 5, alkylether derivatives with cyclic N-substitutions, read-out: MCF-7): 1080 ± 70 nM
- IC50 ([2]; Table 5, alkylether derivatives with cyclic N-substitutions, read-out: SKBr3): 970 ± 30 nM

Compound: CC(C)=CCc1cc(C(=O)Nc2cc3ccc(OCCCNCc4ccccc4)c(C)c3oc2=O)ccc1O [Compound 70e, N-(7-(3-(benzylamino)propoxy)-8-methyl-2-oxo-2H-chromen-3-yl)-4-hydroxy-3-(3-methylbut-2-en-1-yl)benzamide]
- IC50 [1, 14]: 910 ± 10 nM
- IC50 [2, 15]: 470 ± 160 nM

Compound: CC(C)=CCc1cc(C(=O)Nc2cc3ccc(OCCCN(C)[C@H](C)c4ccccc4)c(C)c3oc2=O)ccc1O [Compound 70f, (R)-4-hydroxy-N-(8-methyl-7-(3-(methyl(1-phenylethyl)amino)propoxy)-2-oxo-2H-chromen-3-yl)-3-(3-methylbut-2-en-1-yl)benzamide]
- IC50 [1, 14]: 1450 ± 200 nM
- IC50 [2, 15]: 1000 ± 310 nM

Compound: CC(C)=CCc1cc(C(=O)Nc2cc3ccc(OCCCNC(C)(C)c4ccccc4)c(C)c3oc2=O)ccc1O [Compound 70g, 4-hydroxy-N-(8-methyl-2-oxo-7-(3-((2-phenylpropan-2-yl)amino)propoxy)-2H-chromen-3-yl)-3-(3-methylbut-2-en-1-yl)benzamide]
- IC50 [1, 14]: 1070 ± 10 nM
- IC50 [2, 15]: 960 ± 10 nM

Compound: CC(C)=CCc1cc(C(=O)Nc2cc3ccc(OCCCNC4C[C@H]5CC[C@@H]4C5)c(C)c3oc2=O)ccc1O (stereo partly drawn) [Compound 70i, N-(7-(3-((1R,4S)-bicyclo[2.2.1]heptan-2-ylamino)propoxy)-8-methyl-2-oxo-2H-chromen-3-yl)-4-hydroxy-3-(3-methylbut-2-en-1-yl)benzamide]
- IC50 [1, 14]: 1030 ± 120 nM
- IC50 [2, 15]: 770 ± 130 nM

Compound: Cc1c(OC2CCN(C)CC2)ccc2cc(NC(=O)Nc3cccc(-c4ccccc4)c3)c(=O)oc12 [H, H, 1-([1,1′-biphenyl]-3-yl)-3-(8-methyl-7-((1-methylpiperidin-4-yl)oxy)-2-oxo-2H-chromen-3-yl)urea]
- IC50 [1, 16]: 320 nM
- IC50 [2, 17]: 380 nM

Compound: COc1cccc(-c2cccc(NC(=O)Nc3cc4ccc(OC5CCN(C)CC5)c(C)c4oc3=O)c2)c1 [H, OMe, 1-(3′-methoxy-[1,1′-biphenyl]-3-yl)-3-(8-methyl-7-((1-methylpiperidin-4-yl)oxy)-2-oxo-2H-chromen-3-yl)urea]
- IC50 [1, 16]: 370 nM
- IC50 [2, 17]: 440 nM

Compound: COc1ccc(NC(=O)Nc2cc3ccc(OC4CCN(C)CC4)c(C)c3oc2=O)cc1-c1ccccc1 [OMe, H, 1-(6-methoxy-[1,1′-biphenyl]-3-yl)-3-(8-methyl-7-((1-methylpiperidin-4-yl)oxy)-2-oxo-2H-chromen-3-yl)urea]
- IC50 [1, 16]: 930 nM
- IC50 [2, 17]: 450 nM

Compound: CC(C)=CCc1cc(C(=O)Nc2cc3ccc(OCCCN4CCN(C)CC4)c(C)c3oc2=O)ccc1O [drawing 143]
- IC50 [1, 18]: 1200 ± 120 nM
- IC50 [2, 19]: 1010 ± 30 nM

Compound: CC(C)=CCc1cc(C(=O)Nc2cc3ccc(OCCCN4CCOCC4)c(C)c3oc2=O)ccc1O [drawing 145]
- IC50 [1, 18]: > 50000 nM
- IC50 [2, 19]: > 50000 nM

Compound: CC(C)=CCc1cc(C(=O)Nc2cc3ccc(OCCCN4CCCCC4)c(C)c3oc2=O)ccc1O [drawing 146]
- IC50 [1, 18]: > 50000 nM
- IC50 [2, 19]: > 50000 nM

Compound: CC(C)=CCc1cc(C(=O)Nc2cc3ccc(OCCCN4CCCC4)c(C)c3oc2=O)ccc1O [drawing 147]
- IC50 [1, 18]: 990 ± 40 nM
- IC50 [2, 19]: 720 ± 10 nM

Compound: Cc1c(OC2CCN(C)CC2)ccc2cc(NC(=O)NC34CC5CC(CC(C5)C3)C4)c(=O)oc12 [drawing 156]
- IC50 ([3]; Table 9, non-aryl ureas): 5900 nM
- IC50 ([4]; Table 9, non-aryl ureas): 6200 nM
- IC50 ([5]; Table 9, non-aryl ureas): 18700 nM
- IC50 ([6]; Table 9, non-aryl ureas): 19 ± 3 nM
- IC50 ([7]; Table 9, non-aryl ureas): 10 ± 10 nM
- IC50 ([8]; Table 9, non-aryl ureas): 3000 nM
- IC50 [9]: 82 ± 35 nM

Compound: Cc1c(OC2CCN(C)CC2)ccc2cc(NC(=O)NC3CCCC3)c(=O)oc12 [drawing 167]
- IC50 ([10]; Table 9, non-aryl ureas): > 25000 nM
- IC50 ([11]; Table 9, non-aryl ureas): > 25000 nM

Compound: Cc1c(OC2CCN(C)CC2)ccc2cc(NC(=O)NC3CCCCC3)c(=O)oc12 [drawing 168]
- IC50 ([10]; Table 9, non-aryl ureas): > 25000 nM
- IC50 ([11]; Table 9, non-aryl ureas): > 25000 nM

Compound: Cc1c(OC2CCN(C)CC2)ccc2cc(NC(=O)NC34CC5CC(CC(C5)C3)C4)c(=O)oc12 [drawing 169]
- IC50 ([10]; Table 9, non-aryl ureas): > 25000 nM
- IC50 ([11]; Table 9, non-aryl ureas): 3800 nM

Compound: Cc1c(OC2CCN(C)CC2)ccc2cc(NC(=O)NC(C)(C)C)c(=O)oc12 [drawing 170]
- IC50 ([10]; Table 9, non-aryl ureas): > 25000 nM
- IC50 ([11]; Table 9, non-aryl ureas): 21100 nM

Compound: Cc1c(OC2CCN(C)CC2)ccc2cc(NC(=O)N3CCN(C)CC3)c(=O)oc12 [drawing 171]
- IC50 ([10]; Table 9, non-aryl ureas): > 25000 nM
- IC50 ([11]; Table 9, non-aryl ureas): > 25000 nM

Compound: Cc1c(OC2CCN(C)CC2)ccc2cc(NC(=O)NCc3ccccc3)c(=O)oc12 [drawing 172]
- IC50 ([10]; Table 9, non-aryl ureas): > 25000 nM
- IC50 ([11]; Table 9, non-aryl ureas): 20900 nM

Compound: Cc1c(OC2CCN(C)CC2)ccc2cc(NC(=O)N(C)Cc3ccccc3)c(=O)oc12 [drawing 173]
- IC50 ([10]; Table 9, non-aryl ureas): > 25000 nM
- IC50 ([11]; Table 9, non-aryl ureas): > 25000 nM

Compound: Cc1c(OC2CCN(C)CC2)ccc2cc(NC(=O)N(Cc3ccccc3)Cc3ccccc3)c(=O)oc12 [drawing 174]
- IC50 ([10]; Table 9, non-aryl ureas): 7100 nM
- IC50 ([11]; Table 9, non-aryl ureas): 20900 nM

Compound: Cc1c(OC2CCN(C)CC2)ccc2cc(NC(=O)NC(c3ccccc3)c3ccccc3)c(=O)oc12 [drawing 175]
- IC50 ([10]; Table 9, non-aryl ureas): 1600 nM
- IC50 ([11]; Table 9, non-aryl ureas): 15500 nM

Compound: Cc1c(OC2CCN(C)CC2)ccc2cc(NC(=O)Nc3cccc(C(F)(F)F)c3)c(=O)oc12 [m-CF3, 1-(8-methyl-7-((1-methylpiperidin-4-yl)oxy)-2-oxo-2H-chromen-3-yl)-3-(3-(trifluoromethyl)phenyl)urea]
- IC50 [3, 20]: 150 nM
- IC50 [10, 21]: 16800 nM
- IC50 [4, 22]: 1700 nM
- IC50 [1, 23]: 280 nM
- IC50 [11, 24]: 1600 nM
- IC50 [5, 25]: 7300 nM
- IC50 [6, 26]: 43 nM
- IC50 [7, 27]: 46 nM
- IC50 [8, 28]: 550 nM
- IC50 [2, 29]: 260 nM

Compound: COc1cccc(NC(=O)Nc2cc3ccc(OC4CCN(C)CC4)c(C)c3oc2=O)c1 [m-OCH3]
- IC50 ([1]; Table 6, substituted phenyl ureas, Breast Cancer, read-out: IC50 MCF-3): 960 nM
- IC50 ([2]; Table 6, substituted phenyl ureas, Breast Cancer, read-out: IC50 SKBr3): 1150 nM

Compound: Cc1c(OC2CCN(C)CC2)ccc2cc(NC(=O)Nc3cccc(Oc4ccccc4)c3)c(=O)oc12 [m-phenoxyl, 1-(8-methyl-7-((1-methylpiperidin-4-yl)oxy)-2-oxo-2H-chromen-3-yl)-3-(3-phenoxyphenyl)urea]
- IC50 [3, 20]: 570 nM
- IC50 [10, 21]: 5200 nM
- IC50 [4, 22]: 2400 nM
- IC50 [1, 23]: 280 nM
- IC50 [11, 24]: 2200 nM
- IC50 [5, 25]: 3100 nM
- IC50 [6, 26]: 2160 nM
- IC50 [7, 27]: 1020 nM
- IC50 [8, 28]: 280 nM
- IC50 [2, 29]: 190 nM

Compound: Cc1c(OC2CCN(C)CC2)ccc2cc(NC(=O)Nc3ccc(O)cc3)c(=O)oc12 [p-OH, 1-(4-hydroxyphenyl)-3-(8-methyl-7-((1-methylpiperidin-4-yl)oxy)-2-oxo-2H-chromen-3-yl)urea]
- IC50 [1, 23]: 1340 nM
- IC50 [2, 29]: 1380 nM
